This is an account of results in ChEMBL document CHEMBL1201862, “PubChem BioAssay data set” (2004).

Active and inactive are the calls of the source.

In test [1] the target is T1, Protein skinhead-1 (Caenorhabditis elegans, UniProt P34707).
T1 sequence (P34707 whole entry): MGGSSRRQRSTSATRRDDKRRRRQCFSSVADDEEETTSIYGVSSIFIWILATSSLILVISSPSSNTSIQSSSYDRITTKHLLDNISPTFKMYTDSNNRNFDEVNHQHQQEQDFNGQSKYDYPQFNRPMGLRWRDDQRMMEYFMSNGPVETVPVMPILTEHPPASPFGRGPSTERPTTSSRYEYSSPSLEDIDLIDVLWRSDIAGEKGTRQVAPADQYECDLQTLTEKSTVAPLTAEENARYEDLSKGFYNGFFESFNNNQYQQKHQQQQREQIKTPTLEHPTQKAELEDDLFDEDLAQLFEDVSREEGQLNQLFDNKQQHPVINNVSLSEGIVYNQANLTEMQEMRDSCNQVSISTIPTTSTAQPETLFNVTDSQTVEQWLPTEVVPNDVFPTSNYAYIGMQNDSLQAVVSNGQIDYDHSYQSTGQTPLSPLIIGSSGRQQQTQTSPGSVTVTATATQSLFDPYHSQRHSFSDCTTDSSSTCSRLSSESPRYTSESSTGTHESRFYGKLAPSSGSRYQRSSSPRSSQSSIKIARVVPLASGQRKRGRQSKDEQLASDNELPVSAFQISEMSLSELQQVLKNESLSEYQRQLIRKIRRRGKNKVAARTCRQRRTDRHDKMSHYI
In kind it is functional.

Test [2] has as its target T2, Rac GTPase-activating protein 1 (Homo sapiens, UniProt Q9H0H5).
T2 sequence (Q9H0H5 whole entry): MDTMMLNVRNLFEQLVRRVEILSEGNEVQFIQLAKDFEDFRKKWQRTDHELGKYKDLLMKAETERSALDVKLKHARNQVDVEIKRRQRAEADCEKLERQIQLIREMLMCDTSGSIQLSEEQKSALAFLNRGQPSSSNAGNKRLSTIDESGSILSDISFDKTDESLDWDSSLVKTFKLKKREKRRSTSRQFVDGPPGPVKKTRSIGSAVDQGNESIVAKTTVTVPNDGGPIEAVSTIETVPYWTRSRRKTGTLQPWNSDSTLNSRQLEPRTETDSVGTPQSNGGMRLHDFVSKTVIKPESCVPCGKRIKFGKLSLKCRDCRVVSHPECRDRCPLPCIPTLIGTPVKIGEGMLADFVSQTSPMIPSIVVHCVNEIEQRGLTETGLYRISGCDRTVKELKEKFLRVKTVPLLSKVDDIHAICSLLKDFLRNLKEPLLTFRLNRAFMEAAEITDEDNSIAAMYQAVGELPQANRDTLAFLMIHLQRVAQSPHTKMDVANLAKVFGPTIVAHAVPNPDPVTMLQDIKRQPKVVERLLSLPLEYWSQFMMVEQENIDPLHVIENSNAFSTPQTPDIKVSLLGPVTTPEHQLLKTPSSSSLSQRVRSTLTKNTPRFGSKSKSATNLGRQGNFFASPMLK
The experiment in a line: MgcRacGAP GTPase-activating activity inhibitors, confirmation, biochemical, ADP Hunter fluorescence, primary and confirmatory (AID 624330). The format is functional.

A short description of test [3]: P. falciparum Dd2 growth inhibitors, dose response, SYBR Green, cherry-picked samples (AID 1159567). In kind it is functional, cell-based.
Test [4] concerns the target T3, Short transient receptor potential channel 4 (Mus musculus, UniProt Q9QUQ5).
T3 sequence (Q9QUQ5 whole entry): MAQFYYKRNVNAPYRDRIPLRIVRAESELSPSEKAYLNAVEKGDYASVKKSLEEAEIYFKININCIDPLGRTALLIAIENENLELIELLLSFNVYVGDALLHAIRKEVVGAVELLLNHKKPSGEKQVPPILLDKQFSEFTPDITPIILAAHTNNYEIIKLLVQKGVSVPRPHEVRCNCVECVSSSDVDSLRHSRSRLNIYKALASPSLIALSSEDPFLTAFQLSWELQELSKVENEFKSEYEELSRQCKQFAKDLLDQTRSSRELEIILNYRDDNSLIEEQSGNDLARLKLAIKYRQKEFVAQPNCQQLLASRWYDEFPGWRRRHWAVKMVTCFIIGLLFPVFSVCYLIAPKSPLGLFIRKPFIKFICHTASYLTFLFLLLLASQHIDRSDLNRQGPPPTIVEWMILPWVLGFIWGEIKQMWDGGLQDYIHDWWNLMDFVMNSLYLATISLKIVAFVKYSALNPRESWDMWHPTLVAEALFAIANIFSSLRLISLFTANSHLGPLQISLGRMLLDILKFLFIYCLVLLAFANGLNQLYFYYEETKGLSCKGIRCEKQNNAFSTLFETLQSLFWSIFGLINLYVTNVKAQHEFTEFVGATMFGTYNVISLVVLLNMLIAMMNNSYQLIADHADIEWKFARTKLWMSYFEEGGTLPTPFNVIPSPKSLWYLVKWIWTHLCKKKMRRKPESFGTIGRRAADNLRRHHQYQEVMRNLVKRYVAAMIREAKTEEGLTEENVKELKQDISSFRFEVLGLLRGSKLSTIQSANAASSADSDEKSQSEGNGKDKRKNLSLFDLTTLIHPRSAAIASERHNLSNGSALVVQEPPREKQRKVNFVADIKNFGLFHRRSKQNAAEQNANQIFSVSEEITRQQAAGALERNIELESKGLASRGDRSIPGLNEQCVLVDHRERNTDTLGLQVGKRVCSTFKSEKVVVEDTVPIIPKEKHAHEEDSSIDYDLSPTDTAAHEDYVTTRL
The experiment in a line: mouse TRPC4 channel inhibitors, dose response, cell-based, HEK293 TRPC4/mu-opioid, Fluo-4 calcium (AID 434942).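 Further: potency of inhibitors blocking the TRPC4 calcium response.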 In kind it is functional.

Test [5] concerns the target T4, Ubiquitin-conjugating enzyme E2 N (Homo sapiens, UniProt P61088).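 Further: Dose-response confirmation in a TR-FRET assay detecting UBC13-driven polyubiquitin chain formation, inhibition measured.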
T4 sequence (P61088 whole entry): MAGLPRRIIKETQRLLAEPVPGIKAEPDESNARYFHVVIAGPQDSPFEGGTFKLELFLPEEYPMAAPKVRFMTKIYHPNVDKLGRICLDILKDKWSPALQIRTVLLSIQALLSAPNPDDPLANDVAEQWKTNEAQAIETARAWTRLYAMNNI
The format is functional.

Test [6] concerns the target Cytochrome P450 2C19 (Homo sapiens, UniProt P33261). Kind of test: Cytochrome panel assay with activity outcomes. Panel member name: p450-cyp2c19 Compounds with AC50 equal or less than 10 uM are considered active. The format is functional. To be noted: read-out: AC50.
Test [7] addresses Cytochrome P450 2D6 (Homo sapiens, UniProt P10635).
Test [8] addresses T5, Cytochrome P450 1A2 (Homo sapiens, UniProt P05177).
T5 sequence (P05177 whole entry): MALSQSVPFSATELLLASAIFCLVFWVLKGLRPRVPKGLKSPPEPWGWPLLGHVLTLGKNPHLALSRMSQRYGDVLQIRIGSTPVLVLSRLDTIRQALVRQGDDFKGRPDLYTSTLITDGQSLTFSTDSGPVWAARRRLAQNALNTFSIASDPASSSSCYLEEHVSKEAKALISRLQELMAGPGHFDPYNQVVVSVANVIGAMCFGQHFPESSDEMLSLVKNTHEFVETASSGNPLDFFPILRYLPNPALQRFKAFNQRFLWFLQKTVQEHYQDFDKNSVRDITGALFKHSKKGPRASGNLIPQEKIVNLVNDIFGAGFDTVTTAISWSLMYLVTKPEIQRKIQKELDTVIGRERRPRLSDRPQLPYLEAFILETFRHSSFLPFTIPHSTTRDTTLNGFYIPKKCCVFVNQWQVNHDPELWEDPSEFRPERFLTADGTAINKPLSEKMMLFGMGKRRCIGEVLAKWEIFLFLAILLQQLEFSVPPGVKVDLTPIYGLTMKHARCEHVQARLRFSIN

The nature of test [9]: Luminescence Cell-Based Dose Response HTS to Identify Activators of Luciferase Translation or Activity in H4 […] Cells. [Related pubchem assays: 1829 (Project Summary), 1814 (Primary HTS)]. The format is functional.
Test [10] concerns the target Luciferin 4-monooxygenase (Photinus pyralis, UniProt P08659). The experiment in a line: firefly luciferase enzyme inhibitors, dose response, biochemical, luminescence (AID 1891).
Test [11] is described as follows: Luminescence Cell-Based Dose Confirmation HTS to Identify Inhibitors of Platelet Dense Granule Release. [Related pubchem assays: 1663 (Primary HTS), 1678 (Summary of Project)]. The format is functional.
Test [12] in a line: microbe, parasite or virus in culture. In kind it is functional. To be noted: Mycobacterium tuberculosis.
A short description of test [13]: THP-1 cell cytotoxicity, dose response, cytotoxicity control for non-replicating M. tuberculosis project (AID 489025). In kind it is functional.
Test [14] can be described thus: cells. The format is functional.
The target in test [15] is Cytochrome P450 3A4 (Homo sapiens, UniProt P08684).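 Further: CYP3A4 tested as one member of a cytochrome P450 panel screen.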
Cytochrome P450 3A4, sequence (P08684 whole entry): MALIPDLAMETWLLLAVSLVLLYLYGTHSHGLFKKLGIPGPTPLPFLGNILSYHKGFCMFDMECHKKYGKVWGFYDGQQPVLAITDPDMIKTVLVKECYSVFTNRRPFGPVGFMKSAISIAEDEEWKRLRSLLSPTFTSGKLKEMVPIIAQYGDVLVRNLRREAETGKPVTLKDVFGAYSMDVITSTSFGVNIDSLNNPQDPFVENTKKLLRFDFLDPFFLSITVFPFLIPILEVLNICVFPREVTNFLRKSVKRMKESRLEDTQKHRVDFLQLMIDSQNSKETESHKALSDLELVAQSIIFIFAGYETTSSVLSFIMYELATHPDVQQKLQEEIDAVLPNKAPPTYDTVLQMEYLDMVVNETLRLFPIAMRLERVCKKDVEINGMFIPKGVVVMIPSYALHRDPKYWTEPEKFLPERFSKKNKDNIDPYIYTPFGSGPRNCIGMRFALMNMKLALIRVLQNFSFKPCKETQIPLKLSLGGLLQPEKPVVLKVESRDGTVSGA
Test [16] deals with INS1. The experiment in a line: beta cell apoptosis inhibitors, cytokine rescue, dose response, luminescence, retest (AID 449756).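 Further: cell death triggered by IL-1 beta plus TNF-alpha plus IFN-gamma mixture; protective hits raise ATP signal compared with cytokine alone wells.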 The format is functional, cell-based. To be noted: Rattus norvegicus.
The target of test [17] is Cytochrome P450 2C9 (Homo sapiens, UniProt P11712).
Cytochrome P450 2C9, sequence (P11712 whole entry): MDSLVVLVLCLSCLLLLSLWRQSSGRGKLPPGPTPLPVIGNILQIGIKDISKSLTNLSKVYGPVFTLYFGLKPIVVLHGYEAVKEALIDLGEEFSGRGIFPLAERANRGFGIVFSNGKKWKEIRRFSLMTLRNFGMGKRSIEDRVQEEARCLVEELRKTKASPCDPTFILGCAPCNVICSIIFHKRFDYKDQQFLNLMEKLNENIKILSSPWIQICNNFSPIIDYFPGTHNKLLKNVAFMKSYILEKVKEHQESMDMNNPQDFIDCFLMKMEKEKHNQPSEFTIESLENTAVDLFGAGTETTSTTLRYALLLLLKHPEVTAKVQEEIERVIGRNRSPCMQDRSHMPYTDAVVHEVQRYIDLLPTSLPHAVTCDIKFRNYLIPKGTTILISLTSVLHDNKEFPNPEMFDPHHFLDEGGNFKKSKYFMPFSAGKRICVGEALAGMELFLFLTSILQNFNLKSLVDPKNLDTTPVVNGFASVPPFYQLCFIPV

Cytochrome P450 2C19, sequence (P33261 whole entry): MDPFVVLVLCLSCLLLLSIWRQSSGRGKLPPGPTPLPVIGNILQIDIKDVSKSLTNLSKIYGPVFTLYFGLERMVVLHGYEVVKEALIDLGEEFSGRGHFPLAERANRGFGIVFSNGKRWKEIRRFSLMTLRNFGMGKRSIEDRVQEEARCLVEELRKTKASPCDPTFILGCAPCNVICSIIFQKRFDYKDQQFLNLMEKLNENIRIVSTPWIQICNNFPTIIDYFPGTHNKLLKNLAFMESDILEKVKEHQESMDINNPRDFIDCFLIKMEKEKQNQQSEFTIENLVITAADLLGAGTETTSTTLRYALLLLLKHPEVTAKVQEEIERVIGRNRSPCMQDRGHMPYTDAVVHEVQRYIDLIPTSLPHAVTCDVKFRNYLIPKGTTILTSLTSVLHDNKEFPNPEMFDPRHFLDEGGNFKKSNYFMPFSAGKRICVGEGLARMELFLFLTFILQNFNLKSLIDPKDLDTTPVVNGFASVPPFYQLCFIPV
Luciferin 4-monooxygenase, sequence (P08659 whole entry): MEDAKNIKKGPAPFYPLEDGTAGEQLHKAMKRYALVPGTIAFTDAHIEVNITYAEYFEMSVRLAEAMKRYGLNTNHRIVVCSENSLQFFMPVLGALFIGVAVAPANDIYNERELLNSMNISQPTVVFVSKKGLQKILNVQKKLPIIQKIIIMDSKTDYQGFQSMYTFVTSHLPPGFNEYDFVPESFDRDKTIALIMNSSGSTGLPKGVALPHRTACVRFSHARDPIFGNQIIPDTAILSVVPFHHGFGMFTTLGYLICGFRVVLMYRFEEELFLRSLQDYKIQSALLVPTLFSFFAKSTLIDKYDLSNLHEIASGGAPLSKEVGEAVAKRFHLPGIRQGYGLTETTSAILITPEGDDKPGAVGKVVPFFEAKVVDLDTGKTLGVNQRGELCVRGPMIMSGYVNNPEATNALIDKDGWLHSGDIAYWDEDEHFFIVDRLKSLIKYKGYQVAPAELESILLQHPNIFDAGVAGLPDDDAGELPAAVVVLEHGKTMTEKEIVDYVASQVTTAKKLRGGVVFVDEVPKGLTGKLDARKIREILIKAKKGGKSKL
Cytochrome P450 2D6, sequence (P10635 whole entry): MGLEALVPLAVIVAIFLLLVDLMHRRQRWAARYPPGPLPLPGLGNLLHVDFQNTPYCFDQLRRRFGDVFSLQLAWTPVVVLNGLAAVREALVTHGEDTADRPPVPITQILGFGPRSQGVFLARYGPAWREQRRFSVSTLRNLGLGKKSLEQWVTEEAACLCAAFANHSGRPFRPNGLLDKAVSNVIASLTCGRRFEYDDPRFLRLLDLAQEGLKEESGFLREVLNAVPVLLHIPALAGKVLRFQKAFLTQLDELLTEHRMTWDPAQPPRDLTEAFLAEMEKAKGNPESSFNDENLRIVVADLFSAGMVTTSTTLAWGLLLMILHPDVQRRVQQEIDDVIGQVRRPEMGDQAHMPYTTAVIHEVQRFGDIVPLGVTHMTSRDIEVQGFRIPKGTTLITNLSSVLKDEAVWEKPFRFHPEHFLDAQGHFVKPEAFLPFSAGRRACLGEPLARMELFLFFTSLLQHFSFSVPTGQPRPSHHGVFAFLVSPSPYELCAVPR

By IC50 is commonly meant the concentration needed to halve the response being measured. As for `O=C1C(=Cc2ccccn2)CCc2ccccc21`, the IC50 in test [1] is 43.7 µM (active). `COc1ccccc1N=NNc1ccccc1OC`: the IC50 in [2] was 90.3 µM (active).

The AC50 is the concentration giving half of the maximal activity seen. `CCC(=O)N1CCCCN2[C@H](C1)[C@H](c1ccc(-c3cccnc3)cc1)[C@@H]2CO`: the AC50 in test [3] was 21.9 µM (active). Broadly, the EC50 is the concentration needed to bring the measured effect to its halfway point. `O=C(C[n+]1cccc(CNC(=O)c2ccc(OC(F)F)cc2)c1)Nc1ccc(SC(F)F)cc1`: in [4], the EC50 was 7.5 µM (active). The IC50 in [5] is > 20 µM (inactive). For `C[C@@H]1CN([C@@H](C)CO)S(=O)(=O)c2ccc(C#CC3(O)CCCC3)cc2O[C@H]1CN(C)C(=O)c1ccccc1`, the AC50 in test [3] was 4.33 µM (active).

Take `O=C(c1cccc(F)c1)N1CCC2(CCCN(C(c3ccccc3)c3ccccc3)C2)CC1`: the figures for the AC50 in test [6], in test [7] and in test [8] were 5.01 µM (inconclusive), 10 µM (inconclusive) and 6.31 µM (inconclusive), respectively. Regarding `N/C(=N\N=C\c1ccc(O)cc1)c1nonc1N`, the EC50 in test [9] is 0.334 µM (active); in test [10] it was 8.45 µM (active); in test [11], 1.07 µM (active). Besides, in [2], the IC50 is 23.4 µM (active).

Take `CCN(Cc1ccccc1)c1ccc(/C=N/N2CCOCC2)cc1`: the IC50 in [2] is 63.2 µM (active). `Nc1nc2ccccc2n1CCOc1ccccc1Cl`: the results for the CC50 in test [12] and in test [13] were > 40 µM (active) and 20.6 µM (active), respectively. The IC50 in test [14] is 23.8 µM (active). In the case of `Oc1ccc(CCNCc2cc3c(cc2Br)OCO3)cc1`, the results for the AC50 in [8] and in [15] were 1 µM (inconclusive) and 3.98 µM (inconclusive), respectively. For `c1ccc(C2(Cn3ccc4ccccc43)OCCO2)cc1`, the AC50 in test [16] was 40.2 µM (active). Further, the IC50 in test [1] is > 100 µM (inactive). In the case of `CC(C)C1NC(=S)N(Cc2ccccc2)C1=O` (stereo not given), in [8], the AC50 is 20 µM (inconclusive). The same measure, in the same setting: for `O=S(=O)(O)c1ccc2c(/N=N\c3cccc4ccccc34)c(O)c(S(=O)(=O)O)cc2c1` the value was 5.01 µM (inconclusive). Regarding `CCCCCNC(=O)c1ccccc1SC`, the IC50 in test [1] was 74.6 µM (inactive).

Turning to `O=C(Nc1cnn(Cc2ccc(Cl)cc2)c1)c1ccc([N+](=O)[O-])cc1`, the AC50 in [6] is 2.24 µM (inconclusive); in [8] it was 6.31 µM (inconclusive); in test [17], 0.501 µM (inconclusive). With `O=C1CC2(CCCC2)CC(=O)N1CCCCNC[C@H]1COc2ccccc2O1`, the AC50 in test [8] was 79.4 µM (inconclusive).

Consider `CC(C)(C)NC(=O)CN(C(=O)CCC(=O)Nc1nccs1)c1cccc(C(F)(F)F)c1`, for which the IC50 in test [1] was > 100 µM (inactive).

Regarding `CC[N+](C)(CC)CCOC(=O)C1c2ccccc2Oc2ccccc21` [METHANTHELINE], the AC50 in test [8] is 10 µM (inconclusive).

Turning to `CCn1c2ccccc2c2cc(N)ccc21`, in test [2], the IC50 is 64.1 µM (active). `CC1(C(=O)Nc2cnc3ccccc3c2)CCN1C(=O)c1ccccc1CCc1ccccc1` (stereo not given): in test [1], the IC50 was > 100 µM (inactive). `Cn1c(SCc2c(F)cccc2Cl)nc2c(c1=O)SCC2`: in test [13], the CC50 was > 40 µM (active). For `O=C(O)c1cnc2c(ccc3ncc(C(=O)O)c(O)c32)c1O`, in test [8], the AC50 is 5.01 µM (inconclusive). On to `COc1ccccc1NC(=O)N1CCCCN2[C@H](C1)[C@H](c1ccc(C#CC3CC3)cc1)[C@@H]2CO`, for which the AC50 in test [3] is 5.95 µM (active).
